Ends that are not written are not given here.
What was measured:
[1] = molecular target: T1, ACE (EC 3.4.15.1) from rabbit lungs (Oryctolagus cuniculus, UniProt P12822); assay: pre-incubation experiment of ACEI peptide with ACE (stability towards ACE, inhibitor type); type: biochemical; conditions: peptide 100 µM; for ACE inhibition activity without pre-incubation: before pre-incubation with ACE; for ACE inhibition activity after pre-incubation: pre-incubated with ACE (0.05 mU/µL) 3 h at 37 °C, then HHL 2.5 mM 1 h at 37 °C
T1 construct: ACE (EC 3.4.15.1) from rabbit lungs; purchased Sigma Chemical Co. (St. Louis, MO, USA); host or cells: rabbit lung tissue
T1 sequence (P12822 34-1310): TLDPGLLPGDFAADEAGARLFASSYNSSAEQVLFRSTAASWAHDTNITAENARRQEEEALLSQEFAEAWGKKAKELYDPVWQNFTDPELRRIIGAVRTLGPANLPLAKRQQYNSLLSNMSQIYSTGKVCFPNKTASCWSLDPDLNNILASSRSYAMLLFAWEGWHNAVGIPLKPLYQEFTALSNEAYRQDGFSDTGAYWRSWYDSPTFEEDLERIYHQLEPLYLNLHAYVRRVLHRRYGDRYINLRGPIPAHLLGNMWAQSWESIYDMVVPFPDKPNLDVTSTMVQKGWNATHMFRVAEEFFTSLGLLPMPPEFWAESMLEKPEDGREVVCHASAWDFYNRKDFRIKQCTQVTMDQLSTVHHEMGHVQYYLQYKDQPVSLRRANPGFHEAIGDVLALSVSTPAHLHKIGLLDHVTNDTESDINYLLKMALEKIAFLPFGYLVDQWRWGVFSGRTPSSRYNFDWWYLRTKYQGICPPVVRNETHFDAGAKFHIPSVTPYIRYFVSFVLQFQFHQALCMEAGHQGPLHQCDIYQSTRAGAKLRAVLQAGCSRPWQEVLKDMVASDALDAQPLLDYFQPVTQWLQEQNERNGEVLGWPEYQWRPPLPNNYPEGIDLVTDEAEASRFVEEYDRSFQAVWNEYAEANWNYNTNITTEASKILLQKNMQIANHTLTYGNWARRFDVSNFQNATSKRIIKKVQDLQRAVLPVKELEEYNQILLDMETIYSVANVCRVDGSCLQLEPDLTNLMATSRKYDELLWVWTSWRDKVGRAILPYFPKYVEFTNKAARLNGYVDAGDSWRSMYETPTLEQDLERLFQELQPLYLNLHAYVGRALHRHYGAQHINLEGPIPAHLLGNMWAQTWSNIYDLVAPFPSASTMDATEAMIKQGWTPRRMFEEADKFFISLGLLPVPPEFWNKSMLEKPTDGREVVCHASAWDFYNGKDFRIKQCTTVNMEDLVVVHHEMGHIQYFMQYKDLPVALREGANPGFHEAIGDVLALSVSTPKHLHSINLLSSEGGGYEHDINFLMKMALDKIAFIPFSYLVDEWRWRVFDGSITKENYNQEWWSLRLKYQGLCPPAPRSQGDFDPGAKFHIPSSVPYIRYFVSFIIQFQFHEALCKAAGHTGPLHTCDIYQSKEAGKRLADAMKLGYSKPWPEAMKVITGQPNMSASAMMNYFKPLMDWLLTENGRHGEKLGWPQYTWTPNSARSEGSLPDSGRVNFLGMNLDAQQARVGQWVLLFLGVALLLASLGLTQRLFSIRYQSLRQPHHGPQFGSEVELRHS
Protocol: Since ACE is a dipeptidyl-carboxypeptidase, whether the ACEI peptides will be cleaved by ACE is a critical issue for an in vivo application. Pre-incubation of ACEI peptides with ACE before adding substrate is often used to monitor the reactivity between ACE and the ACEI peptide.
The stability of ACEI peptides towards peptidase ACE was determined according to the method described by Ruiz et al.. Briefly, ACEI peptide (at 100 µM) in 10 µL of deionized water was incubated with 20 µL of ACE (0.05 mU/µL) for 3 h at 37 °C. After that, 30 µL of 2.5 mM HHL was added and the reaction mixture was incubated at 37 °C for 1 h. The reaction was stopped by adding 60 µL 1 N HCl, and the inhibition degree of the peptide was calculated as in Section 3.5.

[2] = molecular target: T1, ACE (EC 3.4.15.1) from rabbit lungs; assay: in vitro ACE inhibitory assay (HHL substrate, hippuric acid by RP-HPLC); type: biochemical; conditions: synthetic peptide; HHL 2.5 mM, borate buffer pH 8.3, 37 °C, HPLC read-out at 228 nm; triplicate, nonlinear regression (Graphpad Prism 6.0)
Protocol: The ACEI activity assay was performed according to a previous report with a slight modification. For each assay, 30 µL 2.5 mM Hippuryl-L-histidyl-L-leucine (HHL) was used as a substrate and added by 10 µL of testing sample (peptides) at a certain concentration in 200 mM borate buffer containing 300 mM NaCl (adjusted to pH 8.3). Blank sample using 10 µL of borate buffer and was added by the same substrate. The positive control was 10 µL of 10 µM captopril. All samples were pre-incubated at 37 °C for 5 min. Subsequently, 20 µL of ACE (0.05 mU/µL) in 200 mM borate buffer was added to the blank sample, positive control and testing sample. The reaction was incubated statically at 37 °C for 30 min and then incubated thermostatically using shaker incubation (200 rpm) at 37 °C for 30 min. […] The HHL and ACE’s hydrolyzed product, hippuric acid (HA), were quantitatively analyzed using HPLC equipped with a C18 column. […] The result of HA was detected by UV detector at 228 nm. The ACE inhibition (%) was determined according to the following equation:ACE Inhibition (%) = [1 − (ΔAInhibitor/ΔABlank)] × 100
Here, ΔAInhibitor and ΔABlank were the peak areas of HA in testing and blank samples, respectively. […] The IC50 was determined using Graphpad Prism 6.0 (GraphPad Software, Inc., La Jolla, CA, USA) by a nonlinear regression of ACE inhibition result (%) caused by different concentrations of inhibitor.

Row | Substance | decrease of inhibition activity after pre-incubation ([1]; 3 h pre-incubation with ACE at 37 °C) | ACE inhibition activity without pre-incubation [1] [%] | ACE inhibition activity after pre-incubation [1] [%] | IC50 [2] [µM]
1 | AIDPVRA [AA-7] | about 10% | 68.07 | 57.89 | 65.8 ± 0.92
2 | FDGIP [FP-5] | – | 78.89 | 76.47 | 58.9 ± 0.68

From article PMC6278394, “Screening of Angiotensin-I Converting Enzyme Inhibitory Peptides Derived from Caulerpa lentillifera” (Molecules, 2018)
